Values quoted from earlier work as cited in US20230285276A1, “Implantable Medical Device for the Delivery of Aromatase Inhibitor” (Celanese EVA Performance Polymers LLC, priority 2022, published 2023).

Legend:
circulating estrogen = details: postmenopausal women
[1] = system: adrenal biosynthesis of corticosteroids or aldosterone; details: in vivo

In the case of C=C1C[C@@H]2[C@H](CC[C@]3(C)C(=O)CC[C@@H]23)[C@@]2(C)C=CC(=O)C=C12 [Exemestane, 6-methylenandrosta-1,4-diene-3,17-dione], the “solubility in N, N-dimethylformamide” value (N, N-dimethylformamide, descriptive term) is given as “freely soluble”, the solubility in methanol (methanol, descriptive term) is given as “soluble” and the “solubility in water (descriptive term)” value (water) is given as “practically insoluble”. The circulating estrogen concentration (circulating estrogen) was “lowers” and the “effect on adrenal biosynthesis of corticosteroids or aldosterone” value [1] was “no detectable effect”.
